In patent publication US5654296A, “Condensed heterocyclic compounds, their production and use” (priority 1994, dated 1997):
Where a name gives a salt, the structure may show the parent alone.

Columns and labels:
[1] = biological target: T1, GnRH receptors (rat pituitary anterior lobe membrane fraction) (Rattus norvegicus, UniProt P30969); assay: 125I-leuprolerin GnRH receptor binding inhibition test, rat pituitary anterior lobe membrane fraction; conditions: 4° C., 90 minutes, read-out: Binding inhibitory activity (IC50 μM) Rat
T1 construct: the anterior lobe of the pituitary gland was isolated and washed with ice-cooled homogenate buffer; from tissue; host or cells: anterior lobe of the pituitary gland, male Wistar rats (8 weeks old), membrane fraction
T1 sequence (P30969 1-327): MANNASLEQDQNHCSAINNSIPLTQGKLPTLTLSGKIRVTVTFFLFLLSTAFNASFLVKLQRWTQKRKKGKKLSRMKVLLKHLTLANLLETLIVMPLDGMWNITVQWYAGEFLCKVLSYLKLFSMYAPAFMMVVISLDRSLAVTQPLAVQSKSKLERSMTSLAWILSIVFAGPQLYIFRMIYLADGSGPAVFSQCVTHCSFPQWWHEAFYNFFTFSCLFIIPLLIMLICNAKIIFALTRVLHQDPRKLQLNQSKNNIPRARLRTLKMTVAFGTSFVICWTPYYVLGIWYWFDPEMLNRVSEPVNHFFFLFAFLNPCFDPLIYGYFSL
Method: Ten (10) μl of 3×10^4 M aqueous leuprolerin solution and 10 μl of 0.01 mg/ml lactoperoxidase were taken in a tube and 10 μl of Na^125 I solution (37 MBq) was added. After stirring, 10 μl of 0.001% H2 O2 was added and the reaction was conducted at room temperature for 20 minutes. Then, 700 μl of 0.05% TFA solution was added to the tube to terminate the reaction and the reaction mixture was purified by reverse-phase HPLC. The HPLC conditions are shown below. ^125 I-leuprolerin was eluted after a retention time of 26-27 minutes. (B) Preparation of a Rat Pituitary Anterior Lobe Membrane Fraction Containing GnRH Receptors […] The pituitary tissue was floated in 2 ml of the homogenate buffer and homogenized using a Polytron homogenizer. The homogenate was centrifuged at 700×G for 15 minutes. The supernatant was taken in an ultracentrifuge tube and centrifuged at 100,000×G for 1 hour to provide a membrane fraction pellet. […] The membrane fraction recovered as a pellet was resuspended in 10 ml of assay buffer, divided into portions, preserved at -80° C. and thawed when needed. […] For the rat and human membrane fractions prepared in (B) and (D), each membrane fraction was diluted with assay buffer to a concentration of 200 μg/ml and distributed in 188 μl portions into tubes. As to the bovine membrane fraction prepared in (C), the membrane fraction was diluted with assay buffer to 750 μg/ml and distributed in 188 μl portions into tubes. […] Where the rat or bovine pituitary anterior lobe membrane fraction was used, the reaction was conducted at 4° C. for 90 minutes. Where the membrane fraction of the CHO with human GnRH receptors expressed was used, the reaction was carried out at 25° C. for 60 minutes. […] After filtration, the radioactivity of ^125 I-leuprolerin remaining on the filter was measured with a γ-counter. The expression (TB-SB)/(TB-NSB)×100 (where SB=radioactivity with the compound added, TB=maximum bound radioactivity, NSB=nonspecifically bound radioactivity) was calculated to find the binding inhibition rate of each test compound.

[2] = biological target: T2, GnRH receptors (bovine pituitary anterior lobe membrane fraction) (Bos taurus, UniProt P32236); assay: 125I-leuprolerin GnRH receptor binding inhibition test, bovine pituitary anterior lobe membrane fraction; conditions: 4° C., 90 minutes, read-out: Binding inhibitory activity (IC50 μM) Bovine
T2 construct: A bovine pituitary anterior lobe membrane fraction containing GnRH receptors was prepared; from tissue; host or cells: bovine pituitary anterior lobe, membrane fraction
T2 sequence (P32236 1-328): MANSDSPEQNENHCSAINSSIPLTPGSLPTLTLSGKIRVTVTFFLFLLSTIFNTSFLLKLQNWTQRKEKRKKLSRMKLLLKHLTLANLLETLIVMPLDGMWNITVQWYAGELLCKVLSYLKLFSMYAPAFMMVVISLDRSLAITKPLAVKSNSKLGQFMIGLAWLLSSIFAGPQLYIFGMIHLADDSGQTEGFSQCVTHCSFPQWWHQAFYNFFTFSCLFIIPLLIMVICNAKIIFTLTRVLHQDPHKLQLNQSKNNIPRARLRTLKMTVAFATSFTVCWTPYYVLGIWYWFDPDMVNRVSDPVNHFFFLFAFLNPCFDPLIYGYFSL
Method: Ten (10) μl of 3×10^4 M aqueous leuprolerin solution and 10 μl of 0.01 mg/ml lactoperoxidase were taken in a tube and 10 μl of Na^125 I solution (37 MBq) was added. After stirring, 10 μl of 0.001% H2 O2 was added and the reaction was conducted at room temperature for 20 minutes. Then, 700 μl of 0.05% TFA solution was added to the tube to terminate the reaction and the reaction mixture was purified by reverse-phase HPLC. The HPLC conditions are shown below. ^125 I-leuprolerin was eluted after a retention time of 26-27 minutes. (C) Preparation of a Bovine Pituitary Anterior Lobe Membrane Fraction Containing GnRH Receptors A bovine pituitary anterior lobe membrane fraction containing GnRH receptors was prepared by the same procedure as described under (B). However, a 10,000×G centrifugation supernatant was recentrifuged at 100,000×G for 1 hour to provide the membrane fraction pellet. […] For the rat and human membrane fractions prepared in (B) and (D), each membrane fraction was diluted with assay buffer to a concentration of 200 μg/ml and distributed in 188 μl portions into tubes. As to the bovine membrane fraction prepared in (C), the membrane fraction was diluted with assay buffer to 750 μg/ml and distributed in 188 μl portions into tubes. […] Where the rat or bovine pituitary anterior lobe membrane fraction was used, the reaction was conducted at 4° C. for 90 minutes. Where the membrane fraction of the CHO with human GnRH receptors expressed was used, the reaction was carried out at 25° C. for 60 minutes. […] After filtration, the radioactivity of ^125 I-leuprolerin remaining on the filter was measured with a γ-counter. The expression (TB-SB)/(TB-NSB)×100 (where SB=radioactivity with the compound added, TB=maximum bound radioactivity, NSB=nonspecifically bound radioactivity) was calculated to find the binding inhibition rate of each test compound.

## COc1cc2c(cc1OC)CC1(CCCCN1CCCC1(c3ccccc3)COCc3ccccc31)CC2 (stereo not drawn) [Example I-37, 3,4-Dihydro-6,7-dimethoxy-1'-[3-(4-phenylisochroman-4-yl)propyl]spiro[naphthalene-2(1H),2'-piperidine] hydrochloride]
[1]
  IC50: 0.03 µM
[2]
  IC50: 6 µM

## COc1ccc2c(c1)CCC1(CCCCN1CCCC1(c3ccccc3)COCc3ccccc31)C2=O (stereo not drawn) [Example I-48, 3,4-Dihydro-6-methoxy-1'-[3-(4-phenylisochroman-4-yl)propyl]spiro[1-oxonaphthalene-2-(1H),2'-piperidine] hydrochloride]
[1]
  IC50: 0.4 µM
[2]
  IC50: 10 µM

## Cc1cccc(CNCCCC2(c3ccccc3)COCc3ccccc32)c1 (stereo not drawn) [Example I-46, 4-[3-(m-Methylbenzylamino)propyl]-4-phenylisochroman hydrochloride]
[1]
  IC50: 0.5 µM
[2]
  IC50: 14 µM

## O=C1c2ccccc2CCC12CCCCN2CCCC1(c2ccccc2)COCc2ccccc21 (stereo not drawn) [Example I-49, 3,4-Dihydro-1'-[3-(4-phenylisochroman-4-yl)propyl]spiro[1-oxonaphthalene-2(1H),2'-piperidine] hydrochloride]
[1]
  IC50: 0.5 µM
[2]
  IC50: 10 µM

## c1ccc(C2(CCCNC3CCCc4ccccc43)COCc3ccccc32)cc1 (stereo not drawn) [Example I-51, 4-Phenyl-4-{3-[1-(1,2,3,4-tetrahydronaphthylamino)]propyl]isochroman hydrochloride]
[1]
  IC50: 0.5 µM
[2]
  IC50: 10 µM

## O=C1c2ccsc2CCC12CCCCN2CCCC1(c2ccccc2)COCc2ccccc21 (stereo not drawn) [Example I-47, 6,7-Dihydro-1'-[3-(4-phenylisochroman-4-yl)propyl]spiro[4-oxobenzo(b)thiophene-5(4H),2'-piperidine] hydrochloride]
[1]
  IC50: 0.3 µM
[2]
  IC50: 7 µM
